The values that follow come from article PMC7944860 (Antiviral Research, 2021).

“And” between values parts separate entries of the source, which are not always exact repeats. Equal entries are not always repeated. Where two headings read alike, the source gives them in different places.

What is called EC50 is the concentration that produces a half-maximal response. As a reminder, the CC50 is the concentration giving 50% cytotoxicity.

The subject of series [1] is SARS-CoV2. Description: microbe, parasite or virus in culture. It counts as cell-based. The settings on record: for EC50: read-out: EC50 (μM) (mean ± SD).
Series [2] relates to HCoV-OC43. The series is described as follows: HCoV-OC43 focus reduction assay on MRC-5 cells. The format is cell-based. The settings on record: for selectivity index: HCoV-OC43, ratio of CC50 and EC50.
The next series can be described thus: Cell viability assay. The settings on record: human, MRC-5 cells.
The next series can be described thus: Cytotoxicity assay. The settings on record: human, Huh7-hACE2 cells.
In series [3] the test system is SARS-CoV2. The settings on record: 2020, cited from earlier work; for increase of remdesivir inhibitory activity (synergy): ref Bafna et al.
In the next series the test system is MRC-5 cells. Description: Cell viability assay. The settings on record: read-out: CC50 (μM) (mean ± SD), 20 h, MTS.
Series [4] deals with SARS-CoV2. The series is described as follows: microbe, parasite or virus in culture. The settings on record: for EC50: read-out: EC50 (μM) (mean ± SD), virus yield reduction. The format is cell-based.
Series [5] relates to HCoV-OC43. The series is described as follows: HCoV-OC43 virus yield reduction assay on MRC-5 cells. The settings on record: for EC50: Betacoronavirus 1, OC43, MRC5, 24 h, read-out: EC50 (μM) (mean ± SD), virus yield reduction; for Virus titer reduction Log10 (mean ± SD) at highest tested dose: FFU/mL vs infected untreated control. It counts as cell-based.
For another series, the system named is Huh7-hACE2 cells. Description: Cytotoxicity assay. The settings on record: read-out: CC50 (μM) (mean ± SD), 20 h, Alamar Blue. Background: Alamar Blue is a resazurin reagent that responds to reducing activity.
[6] abbreviates: Severe acute respiratory syndrome coronavirus 2, 20 h.
Setting [7] is: HCoV-OC43, MRC-5 cells, 20 h, focus reduction.
[8] abbreviates: Betacoronavirus 1, OC43, MRC5, 20 h, read-out: EC50 (μM) (mean ± SD), HCoV-OC43, MRC-5 cells, 20 h, focus reduction.
Setting [9] is: read-out: EC50 (μM) (mean ± SD), HCoV-OC43, MRC-5 cells, 20 h, focus reduction.

Take `COc1cc([C@@H]2c3cc4c(cc3[C@@H](O[C@@H]3O[C@@H]5CO[C@@H](c6cccs6)O[C@H]5[C@H](O)[C@H]3O)[C@H]3COC(=O)[C@H]23)OCO4)cc(OC)c1O` [Teniposide]: the EC50 in the series with SARS-CoV2 [1] (setting [6]) is 97 ± 0.7 µM. Moreover, in the series with HCoV-OC43 [2] (setting [7]), the “EC50 (μM) (mean ± SD)” value is reported as “no antiviral activity”. The figures for the CC50 at 20 h in “Cell viability assay” and in the series “Cytotoxicity assay” were 701 ± 281 µM and greater than 100 µM, respectively.

Take `CCN1CCN(C(=O)N[C@@H](C(=O)N[C@@H]2C(=O)N3C(C(=O)O)=C(CSc4nnnn4C)CS[C@H]23)c2ccc(O)cc2)C(=O)C1=O` [Cefoperazone]: the “EC50 (μM) (mean ± SD)” value in the series with HCoV-OC43 [2] (setting [7]) was “no antiviral activity”. Further, the CC50 at 20 h in the series “Cell viability assay” was greater than 1000 µM.

For `COc1ccc2c(O[C@@H]3C[C@H]4C(=O)N[C@]5(C(=O)NS(=O)(=O)C6CC6)C[C@H]5/C=C\CCCCN(C)C(=O)[C@@H]4C3)cc(-c3nc(C(C)C)cs3)nc2c1C` [Simeprevir], the 50% effective concentration (EC50) is roughly 9.3 µM in the series on SARS-CoV2 [1] (setting [6]) and roughly 2.1 µM in the series with HCoV-OC43 [2] (setting [8]). Also, the CC50 at 20 h in the series “Cell viability assay” came out at 11.1 ± 2.3 µM; in “Cytotoxicity assay”, 47.5 ± 41 µM. Moreover, in the series with SARS-CoV2 [3], the “increase of remdesivir inhibitory activity (synergy)” value is listed as no more than 10 fold.

For the compound `CC1(C)CCC(CN2CCN(c3ccc(C(=O)NS(=O)(=O)c4ccc(NCC5CCOCC5)c([N+](=O)[O-])c4)c(Oc4cnc5[nH]ccc5c4)c3)CC2)=C(c2ccc(Cl)cc2)C1` [Venetoclax], the half-maximal effective concentration (EC50) with SARS-CoV2 [1] (setting [6]) was roughly 6.2 µM; in the series with HCoV-OC43 [2] (setting [8]) it was 3.5 ± 0.5 µM. The CC50 at 20 h was 10.6 ± 1.5 µM in “Cell viability assay” and 22 ± 6.2 µM in “Cytotoxicity assay”.

As for `C[C@@H]1C/C=C/C=C/C=C/C=C/[C@H](O[C@@H]2O[C@H](C)[C@@H](O)[C@H](N)[C@@H]2O)C[C@@H]2O[C@](O)(C[C@@H](O)C[C@H]3O[C@@H]3/C=C/C(=O)O1)C[C@H](O)[C@H]2C(=O)O` [Natamycin], the EC50 with SARS-CoV2 [1] (setting [6]) was 24.3 ± 4.4 µM. Further, the “EC50 (μM) (mean ± SD)” value in the series on HCoV-OC43 [2] (setting [7]) is reported as “no antiviral activity”. For the same compound, the CC50 at 20 h was 47.3 ± 4.4 µM in “Cell viability assay” and 35.9 ± 13.4 µM in “Cytotoxicity assay”.

As to `CCc1c2c(nc3ccc(OC(=O)N4CCC(N5CCCCC5)CC4)cc13)-c1cc3c(c(=O)n1C2)COC(=O)[C@]3(O)CC` [Irinotecan], in the series on SARS-CoV2 [1] (setting [6]), the EC50 was 85.2 ± 17 µM. In the series on HCoV-OC43 [2] (setting [7]), the “EC50 (μM) (mean ± SD)” value is recorded as “no antiviral activity”. Moreover, the CC50 at 20 h is 63.4 ± 11.4 µM in the series “Cell viability assay” and greater than 100 µM in “Cytotoxicity assay”.

For the compound `Cn1nnc(-c2ccc(-c3ccc(N4C[C@H](COP(=O)(O)O)OC4=O)cc3F)cn2)n1` [Tedizolid, Tedizolid phosphate], the concentration giving a half-maximal response (EC50) in the series with HCoV-OC43 [2] (setting [9]) stood at 94 ± 25 µM. Moreover, in the series on MRC-5 cells, the cytotoxic concentration (CC50) is greater than 1000 µM.

Take `Cc1ccc(C(=O)Nc2ccc(S(=O)(=O)O)c3cc(S(=O)(=O)O)cc(S(=O)(=O)O)c23)cc1NC(=O)c1cccc(NC(=O)Nc2cccc(C(=O)Nc3cc(C(=O)Nc4ccc(S(=O)(=O)O)c5cc(S(=O)(=O)O)cc(S(=O)(=O)O)c45)ccc3C)c2)c1` [Suramin]: the EC50 was 64 ± 6.6 µM in the series on SARS-CoV2 [1] (setting [6]) and 19.3 ± 4.3 µM with HCoV-OC43 [2] (setting [8]). The CC50 at 20 h in the series “Cell viability assay” is greater than 1000 µM; in the series “Cytotoxicity assay” it was greater than 100 µM.

For the compound `Cc1ccc(C(=O)Nc2ccc(CN3CCN(C)CC3)c(C(F)(F)F)c2)cc1C#Cc1cnc2cccnn12` [Ponatinib], the 50% effective concentration (EC50) in the series with SARS-CoV2 [1] (setting [6]) is 1.1 ± 0.2 µM; in the series on HCoV-OC43 [2] (setting [8]), 0.1 ± 0.05 µM. Moreover, the CC50 at 20 h in “Cell viability assay” is 3.1 ± 0.5 µM; in the series “Cytotoxicity assay”, 8.7 ± 3.8 µM.

Regarding `COC(=O)N[C@H](C(=O)N1CCC[C@H]1c1nc(-c2ccc3c(c2)O[C@@H](c2ccccc2)n2c-3cc3cc(-c4c[nH]c([C@@H]5CCCN5C(=O)[C@@H](NC(=O)OC)C(C)C)n4)ccc32)c[nH]1)C(C)C` [Elbasvir], the EC50 was roughly 23 µM in the series on SARS-CoV2 [1] (setting [6]), 14.4 ± 7.9 µM in the series on SARS-CoV2 [4] (setting [6]), roughly 1.5 µM in the series on HCoV-OC43 [2] (setting [8]) and 1.3 ± 0.4 µM in the series on HCoV-OC43 [5]. For the same compound, the “Virus titer reduction Log10 (mean ± SD) at highest tested dose” value (“Virus titer reduction Log10 (mean ± SD)” for short) with SARS-CoV2 [4] was 0.6 and 0.6 ± 0.2 (100 μM) Log10; with HCoV-OC43 [5] (HCoV-OC43, 100 μM) it was 1.4 ± 0.2 (100 μM) Log10. Also, the selectivity index entry in the series with HCoV-OC43 [2] is “higher than 600”. For the same compound, the CC50 at 20 h in the series “Cell viability assay” and in the series “Cytotoxicity assay” was greater than 1000 µM throughout. In the series with SARS-CoV2 [3] (in combination with grazoprevir (Zepatier), ref Nguyenla et al.), the “increase of remdesivir's apparent potency in preventing SARS-CoV2 replication” value is recorded as 25 fold.

As for `CC1(C)[C@@H](OC(=O)CCC(=O)O)CC[C@]2(C)[C@H]3C(=O)C=C4[C@@H]5C[C@@](C)(C(=O)O)CC[C@]5(C)CC[C@@]4(C)[C@]3(C)CC[C@@H]12` [Carbenoxolone], the results for the EC50 in the series with SARS-CoV2 [1] (setting [6]) and with HCoV-OC43 [2] (setting [8]) were 66 ± 11 µM and 45.7 ± 8 µM, respectively. Besides, the CC50 at 20 h in the series “Cell viability assay” was 251 ± 17 µM; in the series “Cytotoxicity assay”, greater than 100 µM.

Regarding `CCc1cc2c(cc1N1CCC(N3CCOCC3)CC1)C(C)(C)c1[nH]c3cc(C#N)ccc3c1C2=O` [Alectinib], the “EC50 (μM) (mean ± SD)” value with SARS-CoV2 [1] is given as “no activity”. The EC50 was determined as 0.6 ± 0.2 µM with HCoV-OC43 [2] (setting [8]) and 1 ± 0.1 µM with HCoV-OC43 [5]. In addition, the CC50 at 20 h in “Cell viability assay” is greater than 1000 µM. In addition, in the series on HCoV-OC43 [5] (HCoV-OC43, 33 μM), the “Virus titer reduction Log10 (mean ± SD)” value is listed as 2.9 ± 0.1 (33 μM) Log10.

For `C=C[C@@H]1C[C@]1(NC(=O)[C@@H]1C[C@@H]2CN1C(=O)[C@H](C(C)(C)C)NC(=O)O[C@@H]1C[C@H]1CCCCCc1nc3ccc(OC)cc3nc1O2)C(=O)NS(=O)(=O)C1CC1.O` [Grazoprevir], the EC50 with SARS-CoV2 [1] was ~16 µM and 16 µM; in the series on SARS-CoV2 [4], 3.3 ± 0.9 µM; in the series with HCoV-OC43 [2] (setting [9]) it was 11 ± 1.1 µM. In the series with SARS-CoV2 [4], the “Virus titer reduction Log10 (mean ± SD)” value was 3.9 and 3.9 ± 0.07 (100 μM) Log10. Besides, the figures for the CC50 with MRC-5 cells and in the series on Huh7-hACE2 cells were 70 ± 12.8 µM and 118 ± 6 µM, respectively. In the series with SARS-CoV2 [3], the “increase of remdesivir inhibitory activity (synergy)” value is given as no more than 10 fold.

Regarding `O=C1[C@@H]2[C@H]3CC[C@H](C3)[C@@H]2C(=O)N1C[C@@H]1CCCC[C@H]1CN1CCN(c2nsc3ccccc23)CC1` [Lurasidone], the EC50 turned out to be 18 ± 4.6 µM with SARS-CoV2 [1] (setting [6]), 6.4 ± 3.9 µM in the series with SARS-CoV2 [4] (setting [6]), 1.1 ± 0.4 µM in the series with HCoV-OC43 [2] (setting [8]) and 8.3 ± 2 µM in the series with HCoV-OC43 [5]. Further, the “Virus titer reduction Log10 (mean ± SD)” value was 1.3 and 1.3 ± 0.3 (100 μM) Log10 in the series with SARS-CoV2 [4]; 6.3 ± 1.5 (100 μM) Log10 in the series with HCoV-OC43 [5] (HCoV-OC43, 100 μM). The selectivity index result in the series with HCoV-OC43 [2] is reported as “higher than 600”. Further, the CC50 at 20 h in “Cell viability assay” and in the series “Cytotoxicity assay” was greater than 1000 µM throughout.
